Measurements published in the NIST ThermoML archive (doi:10.1016/j.fluid.2014.04.002).

Assay: refractive index (Na D-line) (dimensionless); xn = mol fraction of the nth substance listed
Details: 101 kPa, Liquid, Standard Abbe refractometry

CCOC(=O)C(C)O (stereo not drawn) [DL-ethyl lactate] + CC(O)CO
refractive index
Details	x1 = 0.1	x1 = 0.2	x1 = 0.3	x1 = 0.3999	x1 = 0.4998	x1 = 0.599	x1 = 0.6999	x1 = 0.7994	x1 = 0.8997	x1 = 1
288.15 K	1.43169	1.42919	1.42688	1.42476	1.42287	1.42116	1.41959	1.41814	1.41676	1.41537
293.15 K	1.42994	1.42736	1.42499	1.4228	1.42086	1.4191	1.41747	1.41597	1.41452	1.41307
298.15 K	1.42819	1.42554	1.42309	1.42085	1.41883	1.41701	1.41532	1.41377	1.41227	1.41076
303.15 K	1.42642	1.42369	1.42118	1.41886	1.41679	1.41491	1.41316	1.41155	1.40999	1.40843
308.15 K	1.42461	1.42181	1.41924	1.41688	1.41475	1.41282	1.41102	1.40935	1.40773	1.4061
313.15 K	1.42279	1.41992	1.41729	1.41488	1.4127	1.41071	1.40884	1.40711	1.40542	1.40374
318.15 K	1.42098	1.41801	1.41529	1.41282	1.41055	1.4085	1.40659	1.40481	1.40309	1.40136
323.15 K	1.41918	1.41615	1.41337	1.41082	1.40849	1.40637	1.40437	1.40252	1.40073	1.39898

CCOC(=O)C(C)O (stereo not drawn) [DL-ethyl lactate] + OCCCO
refractive index
Details	x1 = 0.1001	x1 = 0.2001	x1 = 0.3	x1 = 0.3998	x1 = 0.4996	x1 = 0.5997	x1 = 0.7	x1 = 0.8	x1 = 0.8997	x1 = 1
288.15 K	1.43819	1.43549	1.43282	1.43021	1.42764	1.4251	1.42262	1.42017	1.41776	1.41537
293.15 K	1.43668	1.43388	1.43111	1.4284	1.42573	1.42312	1.42055	1.41803	1.41554	1.41307
298.15 K	1.43517	1.43227	1.4294	1.42658	1.42383	1.42114	1.41851	1.41592	1.41336	1.41076
303.15 K	1.43362	1.43062	1.42766	1.42476	1.42192	1.41914	1.4164	1.41371	1.41107	1.40843
308.15 K	1.43214	1.42902	1.42592	1.42292	1.41996	1.41713	1.41427	1.41152	1.40882	1.4061
313.15 K	1.43065	1.42743	1.42421	1.42111	1.41805	1.41506	1.41215	1.40932	1.40654	1.40374
318.15 K	1.42914	1.4258	1.42249	1.41923	1.41608	1.41301	1.41004	1.40715	1.40428	1.40136
323.15 K	1.42761	1.42417	1.42075	1.41741	1.41415	1.41097	1.40792	1.40493	1.40198	1.39898

COCCOCCOCCOCCOC [2,5,8,11,14-pentaoxapentadecane] + CCOC(=O)C(C)O
refractive index
Details	x2 = 0	x2 = 0.0999	x2 = 0.1999	x2 = 0.2999	x2 = 0.3998	x2 = 0.4999	x2 = 0.6001	x2 = 0.6998	x2 = 0.8001	x2 = 0.9
288.15 K	1.43553	1.43413	1.43253	1.43141	1.42997	1.42831	1.42648	1.42438	1.42214	1.41886
293.15 K	1.43338	1.43195	1.4304	1.42925	1.42782	1.42614	1.42431	1.42219	1.4199	1.41662
298.15 K	1.43123	1.42983	1.42826	1.42712	1.42566	1.42398	1.42212	1.41995	1.41764	1.41436
303.15 K	1.42906	1.42761	1.42612	1.42496	1.42351	1.4218	1.41993	1.41778	1.41537	1.41208
308.15 K	1.42697	1.42558	1.42399	1.4228	1.42135	1.41964	1.41774	1.41556	1.41312	1.4098
313.15 K	1.42447	1.42319	1.42182	1.42059	1.41916	1.41744	1.41552	1.41332	1.41084	1.40749
318.15 K	1.42206	1.42095	1.41972	1.41848	1.41703	1.41528	1.41335	1.41108	1.40853	1.40517
323.15 K	1.41985	1.4188	1.41762	1.41635	1.41488	1.41315	1.41119	1.40889	1.40622	1.40288

CCOC(=O)C(C)O (stereo not drawn) [DL-ethyl lactate] + C1CCOC1
refractive index
Details	x1 = 0.1002	x1 = 0.2001	x1 = 0.3001	x1 = 0.4001	x1 = 0.4999	x1 = 0.5999	x1 = 0.6999	x1 = 0.7999	x1 = 0.8997	x1 = 1
288.15 K	1.41059	1.41119	1.4118	1.41241	1.41298	1.41349	1.41393	1.41431	1.41475	1.41537
293.15 K	1.40801	1.40867	1.40932	1.40998	1.41058	1.41112	1.41157	1.41197	1.41242	1.41307
298.15 K	1.40539	1.40614	1.40687	1.40756	1.40816	1.40871	1.40922	1.40965	1.41017	1.41076
303.15 K	1.40277	1.40359	1.40438	1.4051	1.40571	1.40628	1.40684	1.4073	1.40787	1.40843
308.15 K	1.40015	1.40102	1.40187	1.40264	1.40326	1.40392	1.40445	1.40493	1.40546	1.4061
313.15 K	1.3975	1.39842	1.39936	1.40014	1.4008	1.40149	1.40205	1.40255	1.4031	1.40374
318.15 K	1.39481	1.39578	1.39672	1.39755	1.39831	1.39899	1.3996	1.40015	1.4007	1.40136
323.15 K	1.39211	1.39315	1.39416	1.39503	1.39583	1.39655	1.3972	1.39778	1.39834	1.39898
